Here are results for seven test systems from the supplement of paper PMC6045584.

± gives the standard deviation of the averaged measurements.

Compound in one assay: NS(=O)(=O)OC[C@@H]1C[C@@H](n2ccc3c(N[C@H]4CCc5ccccc54)ncnc32)C[C@@H]1O [MLN-4924]
The experiment in a line: surviving fraction relative to DMSO-only wells; higher = less growth inhibition. Conditions: exposure time: 5 days. The essentials:
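Surviving fraction was calculated by normalising CellTiter-Glo luminescence to the median of DMSO-only wells. Tumour cell lines in log phase were seeded in 384-well plates at 250–500 cells per well, and 24 hours later were exposed continuously for five days to inhibitors at 0.5, 1, 5, 10, 50, 100, 500 and 1000 nM.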

Compound in assay [1]: CCn1c(C(=O)N(C2CC2)C2CC2)cc2c3c(ncn3C)c(Nc3cc(C)n(C)n3)nc21
As to the kind of experiment: area under dose-response curve of surviving fraction (unscaled, Aref=0) (surviving fraction x log10(nM)); higher = more resistant. Conditions: exposure time: 5 days; dose range 0.5-1000 nM. The gist of the method: (§1)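 Surviving fractions were fitted by 3-parameter logistic regression in the drc R package to give dose-response survival curves. They came from tumour cell lines treated for five days with eight inhibitor concentrations from 0.5 to 1000 nM and read by CellTiter-Glo luminescence against DMSO-only wells. The area under the curve is the unscaled activity area. It was calculated over log10 dose with Aref = 0.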

Compound in the next assay: CN1CCN(c2nc(C3=C(c4c[nH]c5ccccc45)C(=O)NC3=O)c3ccccc3n2)CC1 [SOTRASTAURIN/AEB071]
The description is as above. As to conditions: exposure time: 5 days; dose range 0.5-1000 nM. The essentials: as §1

Compound in a further assay: CNC(=O)c1cc(Oc2ccc(NC(=O)Nc3ccc(Cl)c(C(F)(F)F)c3)cc2)ccn1 [SORAFENIB]
The description is as above. Conditions: exposure time: 5 days; dose range 0.5-1000 nM. The essentials: as §1

Compound in assay [2]: COc1cc2ncnc(Nc3ccc(F)c(Cl)c3)c2cc1NC(=O)/C=C/CN1CCCCC1
The assay is described as above. As to conditions: exposure time: 5 days; dose range 0.5-1000 nM. The essentials:
as §1

Compound in the next assay: C[C@@H](Oc1cc(-c2cnn(C3CCNCC3)c2)cnc1N)c1c(Cl)ccc(F)c1Cl [CRIZOTINIB]
The assay is described as above. Conditions: exposure time: 5 days; dose range 0.5-1000 nM. The gist of the method:
as §1

Compound in assay [3]: C[C@@H](Oc1cc(-c2cnn(C3CCNCC3)c2)cnc1N)c1c(Cl)ccc(F)c1Cl
Described as above. Conditions: exposure time: 5 days; dose range 0.5-1000 nM. The essentials: as §1

Compound in a further assay: C[C@]12CC[C@H](O)CC1=CC[C@@H]1[C@@H]2CC[C@]2(C)C(c3cccnc3)=CC[C@@H]12 [ABIRATERONE]
The description is as above. Conditions: exposure time: 5 days; dose range 0.5-1000 nM. The essentials:
as §1

Compound in the next assay: O=C(c1cc(Cc2n[nH]c(=O)c3ccccc23)ccc1F)N1CCN(C(=O)C2CC2)CC1 [OLAPARIB]
Described as above. Conditions: exposure time: 5 days; dose range 0.5-1000 nM. The essentials:
as §1

Compound in the next assay: Oc1nc(-c2ccc(C(F)(F)F)cc2)nc2c1CSCC2 [XAV-939]
Described as above. As to conditions: exposure time: 5 days; dose range 0.5-1000 nM. The essentials:
as §1

HCC70 BREAST: the surviving fraction in the assay with MLN-4924 (0.5 nM) was 1.06 ± 0.14; with MLN-4924 (1 nM) it was 1.09 ± 0.06; in the assay with MLN-4924 (5 nM) it was 1.07 ± 0.066; with MLN-4924 (10 nM), 0.96 ± 0.071; with MLN-4924 (50 nM), 0.582 ± 0.041; with MLN-4924 (100 nM) it was 0.41 ± 0.029. The surviving fraction worked out at 0.14 ± 0.037 in the assay with MLN-4924 (500 nM) and 0.103 ± 0.014 with MLN-4924 (1000 nM). In addition, the “area under dose-response curve” value in [1] was 3.28; with SOTRASTAURIN/AEB071 it was 3.82; in the assay with SORAFENIB, 3.81; in assay [2], 3.17; with CRIZOTINIB, 3.69; in assay [3], 3.26. For the same test system, the “area under dose-response curve” value in the assay with ABIRATERONE and with OLAPARIB was 3.59 throughout.

For the test system G292 BONE, the surviving fraction in the assay with MLN-4924 (0.5 nM) worked out at 1.02 ± 0.031; with MLN-4924 (1 nM) it was 1 ± 0.048; with MLN-4924 (5 nM) it was 1.04 ± 0.017; with MLN-4924 (10 nM), 1.03 ± 0.054; in the assay with MLN-4924 (50 nM) it was 0.909 ± 0.049; with MLN-4924 (100 nM) it was 0.623 ± 0.068. For the same test system, the results for the surviving fraction with MLN-4924 (500 nM) and with MLN-4924 (1000 nM) were 0.295 ± 0.011 and 0.266 ± 0.019, respectively. Moreover, the “area under dose-response curve” value in assay [1] was 3.3; in the assay with SOTRASTAURIN/AEB071, 3.33; with SORAFENIB, 3.26; in assay [2], 3.03; in the assay with CRIZOTINIB, 3; in [3], 2.88. For the same test system, the “area under dose-response curve” value with ABIRATERONE was 3.4; with OLAPARIB, 3.17; with XAV-939, 3.14.

With HCC38 BREAST, the surviving fraction with MLN-4924 (0.5 nM) worked out at 1.35 ± 0.069; in the assay with MLN-4924 (1 nM), 1.48 ± 0.14; with MLN-4924 (5 nM), 1.02 ± 0.14; with MLN-4924 (10 nM), 1.22 ± 0.18; with MLN-4924 (50 nM), 0.624 ± 0.064; with MLN-4924 (100 nM) it was 0.269 ± 0.025. The surviving fraction in the assay with MLN-4924 (500 nM) amounted to 0.0757 ± 0.0075; in the assay with MLN-4924 (1000 nM), 0.0803 ± 0.013. The “area under dose-response curve” value was 3.03 in the assay with SOTRASTAURIN/AEB071; 4.12 in the assay with SORAFENIB; 3.21 in assay [3]; 4.04 with ABIRATERONE; 2.57 with OLAPARIB; 3.17 in the assay with XAV-939.

On to HMT3552 BREAST, for which the surviving fraction was 1.04 ± 0.012 in the assay with MLN-4924 (0.5 nM); 1.11 ± 0.054 with MLN-4924 (1 nM); 1.11 ± 0.062 with MLN-4924 (5 nM); 1.11 ± 0.032 with MLN-4924 (10 nM); 0.458 ± 0.03 in the assay with MLN-4924 (50 nM); 0.295 ± 0.021 with MLN-4924 (100 nM). Moreover, the surviving fraction in the assay with MLN-4924 (500 nM) came to 0.154 ± 0.008; in the assay with MLN-4924 (1000 nM), 0.108 ± 0.0046. In addition, the “area under dose-response curve” value with CRIZOTINIB came out at 3.05.

With CCK81 LARGE INTESTINE, the surviving fraction in the assay with MLN-4924 (0.5 nM) worked out at 0.87 ± 0.11; with MLN-4924 (1 nM), 0.814 ± 0.12; in the assay with MLN-4924 (5 nM), 0.704 ± 0.15; with MLN-4924 (10 nM) it was 0.794 ± 0.088; in the assay with MLN-4924 (50 nM), 0.867 ± 0.07; in the assay with MLN-4924 (100 nM), 0.831 ± 0.059. Besides, the surviving fraction in the assay with MLN-4924 (500 nM) turned out to be 0.567 ± 0.066; in the assay with MLN-4924 (1000 nM) it was 0.473 ± 0.065. Moreover, the “area under dose-response curve” value in the assay with SOTRASTAURIN/AEB071 came out at 2.85; in the assay with CRIZOTINIB it was 2.36.

For HS578T BREAST, the surviving fraction with MLN-4924 (0.5 nM) was 0.822 ± 0.14; with MLN-4924 (1 nM) it was 0.96 ± 0.14; with MLN-4924 (5 nM), 0.898 ± 0.05; with MLN-4924 (10 nM) it was 0.957 ± 0.11; with MLN-4924 (50 nM), 0.63 ± 0.021; with MLN-4924 (100 nM), 0.494 ± 0.037. The surviving fraction in the assay with MLN-4924 (500 nM) worked out at 0.342 ± 0.04; in the assay with MLN-4924 (1000 nM), 0.326 ± 0.057. Besides, the “area under dose-response curve” value in assay [1] amounted to 3.19; with SOTRASTAURIN/AEB071, 3.13; with SORAFENIB, 2.64; in [3], 2.75; with OLAPARIB, 2.79; in the assay with XAV-939 it was 3.76.

On to HMLE3 BREAST, for which the surviving fraction with MLN-4924 (0.5 nM) turned out to be 1.04 ± 0.046; with MLN-4924 (1 nM), 1.08 ± 0.031; with MLN-4924 (5 nM), 1.07 ± 0.016; with MLN-4924 (10 nM), 1.25 ± 0.019; in the assay with MLN-4924 (50 nM), 1.07 ± 0.016; with MLN-4924 (100 nM), 0.698 ± 0.024. Also, the surviving fraction with MLN-4924 (500 nM) was 0.175 ± 0.017; in the assay with MLN-4924 (1000 nM) it was 0.114 ± 0.025. The “area under dose-response curve” value in assay [1] was determined as 3.12; in assay [2], 3.01; in [3], 2.86; in the assay with ABIRATERONE it was 3.42; in the assay with OLAPARIB it was 3.22; with XAV-939 it was 3.15.
